Columns and labels:
COL1A1 mRNA = test: COL1A1 (type 1 collagen) mRNA expression by qRT-PCR in human dermal fibroblasts; format: cell-based; conditions: positive control at 5.0 ng/ml, mean±SD
Protocol: (§1) For the in-vitro collagen production increase test of Example 3 (hereinafter, referred to as “JL-101 powder”), normal human dermal fibroblasts (HDFs) were used. In order to set the test solution concentration of the sample, HDFs were treated with the sample material for 24 hr and the concentration range in which cytotoxicity was not observed was confirmed through a cytotoxicity test. HDFs were treated with 'JL-101 powder' at the set test solution concentration in the same manner, and thus the expression levels of COL1A1 and COL3A1 mRNA, which are collagen genes, were compared and analyzed using real-time PCR (RT-PCR). […] The expression level of a collagen gene was determined by measuring the expression levels of a COL1A1 gene, which is a representative component of type 1 collagen, and of a COL3A1 gene, which is a representative component of type 3 collagen, using quantitative real-time PCR (qRT-PCR) (Peter, 2008). […] The concentration and purity (A260/A280 and A260/A230 ratio) of total mRNA were measured using a MaestroNano® microvolume spectrophotometer (Maestrogen, Las Vegas, NV, USA), and only total mRNA having high purity of 2.0 or more was selected. […] Mix Plus (Solis BioDyne, Estonia), and the expression of the corresponding gene was analyzed using Line-Gene K software (Bioer Technology Co. Ltd., Hangzhou, China). […]

COL3A1 mRNA = test: COL3A1 (type 3 collagen) mRNA expression by qRT-PCR in human dermal fibroblasts; format: cell-based; conditions: positive control at 5.0 ng/ml, mean±SD
Protocol: as §1

Substance: TGF-β
- increase of expression of COL1A1 mRNA compared to the negative control (COL1A1 mRNA): 219.65±7.25%
- increase of expression of COL3A1 mRNA compared to the negative control (COL3A1 mRNA): 22.93±6.21%
